This passage reports IC50 results from patent US6410792B1, “Amide derivatives and methods for using the same as selective neuropeptide Y receptor antagonists” (Bayer Corporation, priority 1997, dated 2002).

Read-outs that look alike come from different tables or passages of the source.

One assay has as its target T1, Human NPY5 receptor (Homo sapiens, UniProt Q15761).
T1 sequence (Q15761 1-445): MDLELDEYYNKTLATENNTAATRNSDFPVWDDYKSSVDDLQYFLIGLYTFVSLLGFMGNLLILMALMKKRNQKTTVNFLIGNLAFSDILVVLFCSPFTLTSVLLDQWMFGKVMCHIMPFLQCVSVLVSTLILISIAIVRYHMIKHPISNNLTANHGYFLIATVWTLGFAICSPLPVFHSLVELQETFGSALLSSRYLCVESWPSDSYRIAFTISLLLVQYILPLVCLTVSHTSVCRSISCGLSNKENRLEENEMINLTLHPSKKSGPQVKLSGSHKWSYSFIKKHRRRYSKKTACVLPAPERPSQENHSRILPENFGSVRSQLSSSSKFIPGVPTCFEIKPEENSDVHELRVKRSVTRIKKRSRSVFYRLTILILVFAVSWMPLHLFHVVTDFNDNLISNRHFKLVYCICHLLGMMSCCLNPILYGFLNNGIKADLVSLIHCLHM
The experiment in a line: Human NPY5 receptor binding assay ([125I]PYY, membrane protein). The method in brief: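 First, membrane protein, drug dilution and 75-100 pM [125I]PYY were combined in pH 7.4 Tris saline buffer containing divalent cations and 0.1% BSA. Next, samples were mixed 2 hours at room temperature. Finally, samples were filtered, washed ice-cold and counted; 1 μM PYY gave nonspecific binding.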

A further assay concerns the target T2, Rat NPY5 receptor (Rattus norvegicus, UniProt Q63634).
T2 sequence (Q63634 1-445): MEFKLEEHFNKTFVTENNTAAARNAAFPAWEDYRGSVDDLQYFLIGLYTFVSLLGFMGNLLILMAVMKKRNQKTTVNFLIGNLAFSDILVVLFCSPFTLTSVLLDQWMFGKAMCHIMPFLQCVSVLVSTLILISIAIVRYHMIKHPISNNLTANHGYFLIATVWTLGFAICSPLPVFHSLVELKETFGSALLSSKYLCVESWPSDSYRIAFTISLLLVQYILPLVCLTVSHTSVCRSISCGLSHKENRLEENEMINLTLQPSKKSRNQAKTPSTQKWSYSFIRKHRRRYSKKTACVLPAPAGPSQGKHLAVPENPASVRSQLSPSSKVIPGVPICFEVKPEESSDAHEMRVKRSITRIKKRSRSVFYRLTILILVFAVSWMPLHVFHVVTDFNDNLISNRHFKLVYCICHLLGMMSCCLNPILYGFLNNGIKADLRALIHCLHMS
Nature of the assay: Rat NPY5 receptor binding assay ([125I]PYY, membrane protein). The note with it: [125I]PYY binding, read-out: rNPY5 IC50. On the procedure:
C. Human and Rat NPY5 Receptor Binding Assays
Binding assays are performed on GF/C Millipore 96well plates pretreated with 0.02% polyethylenimine. The binding buffer is 25 mM Tris, 120 mM NaCl, 5 mM KCl, 1.2 mM KH2PO4, 2.5 mM CaCl2, 1.2 mM MgSO4, 0.1% BSA and 0.5 mg/ml bacitracin, pH 7.4. Samples consist of membrane protein, 75-100 pM [125I]PYY (porcine, NEN-DuPont) and drug dilution. Nonspecific binding is defined by 1 μM PYY. After a 2 hour incubation at room temperature with constant mixing, the samples are aspirated on a vacuum manifold, and rinsed with ice-cold binding buffer. The amount of radioactivity in each well is quantitated with either gamma counting or liquid scintillation.

The next assay addresses T3, Y2 receptor (Homo sapiens, UniProt P49146).
T3 sequence (P49146 1-381): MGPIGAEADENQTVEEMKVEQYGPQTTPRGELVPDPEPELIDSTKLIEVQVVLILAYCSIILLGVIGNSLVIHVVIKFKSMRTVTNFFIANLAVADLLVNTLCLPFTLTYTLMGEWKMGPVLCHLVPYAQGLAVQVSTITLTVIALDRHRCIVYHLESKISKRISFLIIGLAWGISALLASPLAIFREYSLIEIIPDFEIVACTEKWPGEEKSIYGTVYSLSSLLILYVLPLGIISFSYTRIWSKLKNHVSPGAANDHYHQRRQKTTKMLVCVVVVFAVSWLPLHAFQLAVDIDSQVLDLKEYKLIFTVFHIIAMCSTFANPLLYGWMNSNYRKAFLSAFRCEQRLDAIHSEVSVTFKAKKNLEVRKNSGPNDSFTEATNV
The experiment in a line: Y2 receptor binding assay ([125I]PYY, membrane protein). Particulars: read-out: hNPY2 IC50. The method in brief: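 Filtration binding with membrane protein and drug dilution, 2 h at room temperature with mixing, radioactivity counted by gamma or scintillation. Y2: 25 pM [125I]PYY in Krebs-Ringer bicarbonate pH 7.4 with 0.01% BSA, nonspecific by 1 μM NPY. Y4/PP1: 50 pM [125I]hPP in HEPES-buffered saline pH 7.4 with protease inhibitors and 0.3% BSA, nonspecific by 1 μM hPP.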

[1] abbreviates: [125I]PYY binding, read-out: hNPY5 IC50.
Where [2] appears, read: [125I]PYY binding, membrane protein.

The term IC50 denotes the point on the concentration scale where inhibition reaches its midpoint. Turning to `CNC1CCN(CC(=O)Nc2ccc(C3CCCCC3)cc2)C1` (stereo not shown) [Compound 193, N-(4-Cyclohexyl-phenyl)-2-(3-methylamino-pyrrolidin-1-yl)-acetamide], the values for the half-maximal inhibitory concentration (IC50) on Human NPY5 receptor (setting [1]) and on Rat NPY5 receptor were 0.27 µM and 0.25 µM, respectively.
For `O=C(O)CC(NCC(=O)Nc1ccc(C2CCCCC2)cc1)C(F)(F)F` (stereo not shown) [Compound 180, 3-{[(4-Cyclohexyl-phenylcarbamoyl)-methyl]-amino}-4,4,4-trifluoro-butyric acid], in that order: 0.17 µM and 0.12 µM.
For `CC(C)(C)OC(=O)NC1CCN(CC(=O)Nc2ccc(C3CCCCC3)cc2)C1` (stereo not shown) [Compound 195, {1-[(4-Cyclohexyl-phenylcarbamoyl)-methyl]-pyrrolidin-3-yl}-carbamic acid tert-butyl ester], in that order: 0.026 µM and 0.026 µM.
Regarding `O=C(CNc1c(I)cc(C(=O)O)cc1I)Nc1ccc(C(=O)c2ccccc2)cc1` [Compound 171, 4-{[(4-Benzoyl-phenylcarbamoyl)-methyl]-amino)-3,5-diiodo-benzoic acid], the concentration for half-maximal inhibition (IC50) on Human NPY5 receptor (setting [1]) is 0.53 µM; on Rat NPY5 receptor, 1.2 µM.
With `O=C(CN1CCC2(CC1)C(=O)NCN2c1ccccc1)Nc1ccc(C(=O)c2ccccc2)cc1` [Compound 58, N-(4-Benzoyl-phenyl)-2-(4-oxo-1-phenyl-1,3,8-triaz-spiro[4.5]dec-8-yl)-acetamide], the IC50 at Human NPY5 receptor (setting [1]) was 2 µM; at Y2 receptor (setting [2]), greater than 5 µM.
For `O=C(CN1CCC(C(=O)O)CC1)Nc1ccc(C(=O)c2ccccc2)cc1` [Compound 40, 1-[(4-Benzoyl-phenylcarbamoyl)-methyl]-piperidine-4-carboxylic acid], in that order: greater than 10 µM and greater than 5 µM.
For `O=C(CNCc1ccccc1)Nc1ccc(C2CCCCC2)cc1` [Compound 11, 2-Benzylamino-N-(4-cyclohexyl-phenyl)-acetamide], in that order: 2.8 µM and greater than 5 µM.
For `CC1CCN(CC(=O)Nc2ccc(C(=O)c3ccccc3)cc2)CC1` [Compound 50, N-(4-Benzoyl-phenyl)-2-(4-methyl-piperidin-1-yl)-acetamide], in that order: 2.2 µM and greater than 5 µM.
Turning to `O=C(CNCC1CCNCC1)Nc1ccc(C2CCCCC2)cc1` [Compound 28, N-(4-Cyclohexyl-phenyl)-2-[(piperidin-4-ylmethyl)-amino]-acetamide], the IC50 on Human NPY5 receptor (setting [1]) was 8.9 µM; on Y2 receptor (setting [2]) it was greater than 5 µM.
For “2-[4-(4-Bromo-phenyl)-4-hydroxy-piperidin-1-yl]-N-(4-cyclohexyl-phenyl)-acetamide [Compound 88]”, in that order: 0.12 µM and greater than 5 µM.
As for `CCN(CC)CC(=O)Nc1ccc(C(=O)c2ccccc2)cc1` [Compound 7, N-(4-Benzoyl-phenyl)-2-diethylamino-acetamide], the IC50 is 1.6 µM on Human NPY5 receptor (setting [1]) and greater than 5 µM on Y2 receptor (setting [2]).
Turning to `O=C(CN1CCC(Br)CC1)Nc1ccc(C2CCCCC2)cc1` [Compound 97, 2-(4-Bromo-piperidin-1-yl)-N-(4-Cyclohexyl-phenyl)-acetamide], the half-inhibitory concentration (IC50) on Human NPY5 receptor (setting [1]) is 0.15 µM; on Y2 receptor (setting [2]), greater than 5 µM.
For `O=C(CN1CCC[C@@H]1CO)Nc1ccc(C2CCCCC2)cc1` [Compound 113, N-(4-Cyclohexyl-phenyl)-2-(2R-hydroxymethyl-pyrrolidin-1-yl)-acetamide], in that order: 0.7 µM and greater than 5 µM.
The matching figures for `O=C(CN1CC[C@@H](O)C1)Nc1ccc(C(=O)c2ccccc2)cc1` [Compound 81, N-(4-Benzoyl-phenyl)-2-(3R-hydroxy-pyrrolidin-1-yl)-acetamide]: greater than 5 µM and greater than 5 µM.
As for “2-[4-(4-Chloro-phenyl)-3,6-dihydro-2H-pyridin-1-yl]-N-(4-cyclohexyl-phenyl)-acetamide [Compound 15]”, the IC50 is 2.7 µM on Human NPY5 receptor (setting [1]) and greater than 5 µM at Y2 receptor (setting [2]).
`N#CC1(c2ccccc2)CCN(CC(=O)Nc2ccc(C(=O)c3ccccc3)cc2)CC1` [Compound 44, N-(4-Benzoyl-phenyl)-2-(4-cyano-4-phenyl-piperidin-1-yl)-acetamide]: the figures for the 50% inhibitory concentration (IC50) at Human NPY5 receptor (setting [1]) and at Y2 receptor were 0.093 µM and greater than 5 µM, respectively.
Take `O=C(CN1CCN(c2ccccc2Cl)CC1)Nc1ccc(C(=O)c2ccccc2)cc1` [Compound 8, N-(4-Benzoyl-phenyl)-2-[4-(2-chloro-phenyl)-piperazin-1-yl]-acetamide]: the results for the half-maximal inhibitory concentration (IC50) on Human NPY5 receptor (setting [1]) and on Y2 receptor (setting [2]) were 0.96 µM and greater than 5 µM, respectively.
The matching figures for `O=C(CN1CCC(O)(Cc2ccccc2)CC1)Nc1ccc(C2CCCCC2)cc1` [Compound 1, 2-(4-Benzyl-4-hydroxypiperidin-1-yl)-N-(4-cyclohexylphenyl)acetamide]: 0.15 µM and greater than 5 µM.
The matching figures for `CCNC1(C(N)=O)CCN(CC(=O)Nc2ccc(C(=O)c3ccccc3)cc2)CC1` [Compound 48, 1-[(4-Benzoyl-phenylcarbamoyl)-methyl]-4-ethylamino-piperidine-4-carboxylic acid amide]: 0.02 µM and greater than 5 µM.
Regarding `C=C(C)C1CN(CC(=O)Nc2ccc(C(=O)c3ccccc3)cc2)C(C(=O)O)C1CC(=O)O` (stereo not shown) [Compound 120, 1-[(4-Benzoyl-phenylcarbamoyl)-methyl]-3-carboxymethyl-4-isopropenyl-pyrrolidine-2-carboxylic acid], the IC50 on Human NPY5 receptor (hNPY5 IC50, [125I]PYY binding) is greater than 10 µM; at Y2 receptor (setting [2]), greater than 5 µM.
For `CCCOC1(c2ccccc2)CCN(CC(=O)Nc2ccc(C(=O)c3ccccc3)cc2)CC1` [Compound 66, N-(4-Benzoyl-phenyl)-2-(4-phenyl-4-propoxy-piperidin-1-yl)-acetamide], the figures for the IC50 at Human NPY5 receptor (setting [1]) and at Y2 receptor (setting [2]) were 0.78 µM and greater than 5 µM, respectively.
For `CC1CCN(CC(=O)Nc2ccc(C3CCCCC3)cc2)CC1` [Compound 33, N-(4-Cyclohexyl-phenyl)-2-(4-methyl-piperidin-1-yl)-acetamide], the figures for the half-inhibitory concentration (IC50) on Human NPY5 receptor (setting [1]) and at Y2 receptor (setting [2]) were greater than 10 µM and greater than 5 µM, respectively.
For `O=C(CN1CCC(O)C1)Nc1ccc(C(=O)c2ccccc2)cc1` (stereo not shown) [Compound 103, N-(4-Benzoyl-phenyl)-2-(3-hydroxy-pyrrolidin-1-yl)-acetamide], in that order: 3 µM and greater than 5 µM.
The matching figures for `COc1ccc(C(=O)C2CCN(CC(=O)Nc3ccc(C(=O)c4ccccc4)cc3)CC2)cc1` [Compound 122, N-(4-Benzoyl-phenyl)-2-[4-(4-methoxy-benzoyl)-piperidin-1-yl]-acetamide]: 9.9 µM and greater than 5 µM.
For `O=C(CN1CCN(c2cccc(Cl)c2)CC1)Nc1ccc(C(=O)c2ccccc2)cc1` [Compound 9], in that order: 0.64 µM and greater than 5 µM.
For the molecule `O=C(CN1CCCC1C(O)(c1ccccc1)c1ccccc1)Nc1ccc(C(=O)c2ccccc2)cc1` (stereo not shown) [Compound 125, N-(4-Benzoyl-phenyl)-2-[2-(hydroxy-diphenyl-methyl)-pyrrolidin-1-yl]-acetamide], the figures for the half-maximal inhibitory concentration (IC50) at Human NPY5 receptor (setting [1]) and at Y2 receptor (setting [2]) were 0.43 µM and greater than 5 µM, respectively.
